Measurements published in ChEMBL document CHEMBL3044836, “Synthesis, antimicrobial and cytotoxic activities of novel 4-trifluoromethyl-(1,2,3)-thiadiazolo-5-carboxylic acid hydrazide Schiffs bases” (Med Chem Res, 2013).
Converted amounts (≈) assume the structure as drawn.

Key:
Aspergillus niger [1] = assay: Antifungal activity against Aspergillus niger MTCC 1344 assessed as growth inhibition at 50 ug/ml after 48 hr by agar cup diffusion method; format: functional; details: MTCC 1344, 48 h, read-out: DIZ
Saccharomyces cerevisiae [2] = assay: Antifungal activity against Saccharomyces cerevisiae MTCC 36 assessed as growth inhibition at 50 ug/ml after 48 hr by agar cup diffusion method; format: functional; details: MTCC 36, 48 h, read-out: DIZ
Diutina rugosa [3] = assay: Antifungal activity against Candida rugosa NCIM 3462 assessed as growth inhibition at 50 ug/ml after 48 hr by agar cup diffusion method; format: functional; details: NCIM 3462, 48 h, read-out: DIZ
Candida albicans [4] = assay: Antifungal activity against Candida albicans MTCC 227 assessed as growth inhibition at 50 ug/ml after 48 hr by agar cup diffusion method; format: functional; details: MTCC 227, 48 h, read-out: DIZ
MDA-MB-231 [5] = assay: Cytotoxicity against Homo sapiens (human) MDA-MB-231 cells assessed as cell viability at 1 uM after 48 hr by MTT assay relative to control; format: functional; details: MDA-MB-231, 48 h, read-out: Activity
MCF7 [6] = assay: Cytotoxicity against Homo sapiens (human) MCF7 cells assessed as cell viability at 10 uM after 48 hr by MTT assay relative to control; format: functional; details: MCF7, 48 h, read-out: Activity
MDA-MB-231 [7] = assay: Cytotoxicity against Homo sapiens (human) MDA-MB-231 cells assessed as cell viability at 10 uM after 48 hr by MTT assay relative to control; format: functional; details: MDA-MB-231, 48 h, read-out: Activity
Aspergillus niger [8] = assay: Antifungal activity against Aspergillus niger MTCC 1344 assessed as growth inhibition at 150 ug/ml after 48 hr by agar cup diffusion method; format: functional; details: MTCC 1344, 48 h, read-out: DIZ
Aspergillus niger [9] = assay: Antifungal activity against Aspergillus niger MTCC 1344 assessed as growth inhibition at 100 ug/ml after 48 hr by agar cup diffusion method; format: functional; details: MTCC 1344, 48 h, read-out: DIZ
Saccharomyces cerevisiae [10] = assay: Antifungal activity against Saccharomyces cerevisiae MTCC 36 assessed as growth inhibition at 150 ug/ml after 48 hr by agar cup diffusion method; format: functional; details: MTCC 36, 48 h, read-out: DIZ
Saccharomyces cerevisiae [11] = assay: Antifungal activity against Saccharomyces cerevisiae MTCC 36 assessed as growth inhibition at 100 ug/ml after 48 hr by agar cup diffusion method; format: functional; details: MTCC 36, 48 h, read-out: DIZ
Diutina rugosa [12] = assay: Antifungal activity against Candida rugosa NCIM 3462 assessed as growth inhibition at 150 ug/ml after 48 hr by agar cup diffusion method; format: functional; details: NCIM 3462, 48 h, read-out: DIZ
Diutina rugosa [13] = assay: Antifungal activity against Candida rugosa NCIM 3462 assessed as growth inhibition at 100 ug/ml after 48 hr by agar cup diffusion method; format: functional; details: NCIM 3462, 48 h, read-out: DIZ
Candida albicans [14] = assay: Antifungal activity against Candida albicans MTCC 227 assessed as growth inhibition at 150 ug/ml after 48 hr by agar cup diffusion method; format: functional; details: MTCC 227, 48 h, read-out: DIZ
Candida albicans [15] = assay: Antifungal activity against Candida albicans MTCC 227 assessed as growth inhibition at 100 ug/ml after 48 hr by agar cup diffusion method; format: functional; details: MTCC 227, 48 h, read-out: DIZ
Klebsiella pneumoniae = assay: Antibacterial activity against Klebsiella pneumoniae assessed as growth inhibition by broth dilution method; format: functional; details: read-out: MIC
Pseudomonas aeruginosa = assay: Antibacterial activity against Pseudomonas aeruginosa MTCC 741 assessed as growth inhibition by broth dilution method; format: functional; details: read-out: MIC
MCF7 [16] = assay: Cytotoxicity against Homo sapiens (human) MCF7 cells assessed as cell viability after 48 hr by MTT assay; format: functional, cell-based; details: MCF7, 48 h
MDA-MB-231 [17] = assay: Cytotoxicity against Homo sapiens (human) MDA-MB-231 cells assessed as cell viability after 48 hr by MTT assay; format: functional, cell-based; details: MDA-MB-231, 48 h
Staphylococcus aureus = assay: Antibacterial activity against Staphylococcus aureus MTCC 96 assessed as growth inhibition by broth dilution method; format: functional
Bacillus subtilis = assay: Antibacterial activity against Bacillus subtilis MTCC 441 assessed as growth inhibition by broth dilution method; format: functional; details: read-out: MIC
[18] = system: Staphylococcus epidermidis; assay: Antibacterial activity against Staphylococcus epidermidis MTCC 435 assessed as growth inhibition by broth dilution method; format: functional; details: read-out: MIC
Escherichia coli = assay: Antibacterial activity against Escherichia coli MTCC 443 assessed as growth inhibition by broth dilution method; format: functional
MCF7 [19] = assay: Cytotoxicity against Homo sapiens (human) MCF7 cells assessed as cell viability at 5 uM after 48 hr by MTT assay relative to control; format: functional; details: MCF7, 48 h, read-out: Activity
MDA-MB-231 [20] = assay: Cytotoxicity against Homo sapiens (human) MDA-MB-231 cells assessed as cell viability at 5 uM after 48 hr by MTT assay relative to control; format: functional; details: MDA-MB-231, 48 h, read-out: Activity

Row | Structure (SMILES) | MIC (Klebsiella pneumoniae) [µg/mL] | MIC (Pseudomonas aeruginosa) [µg/mL] | MIC (Staphylococcus aureus; read-out: MIC) [µg/mL] | MIC (Bacillus subtilis) [µg/mL] | MIC [18] [µg/mL] | MIC (Escherichia coli; read-out: MIC) [µg/mL] | viability at 10 µM (MCF7 [6]) [%] | viability at 10 µM (MDA-MB-231 [7]) [%] | zone of inhibition at 150 µg/mL (Aspergillus niger [8]) [mm] | zone of inhibition at 100 µg/mL (Aspergillus niger [9]) [mm] | zone of inhibition at 150 µg/mL (Saccharomyces cerevisiae [10]) [mm] | zone of inhibition at 100 µg/mL (Saccharomyces cerevisiae [11]) [mm] | zone of inhibition at 150 µg/mL (Diutina rugosa [12]) [mm] | zone of inhibition at 100 µg/mL (Diutina rugosa [13]) [mm] | zone of inhibition at 150 µg/mL (Candida albicans [14]) [mm] | zone of inhibition at 100 µg/mL (Candida albicans [15]) [mm] | also measured
1 | C[C@@H]1[C@H](O)[C@@H](C)/C=C/C=C/C=C/C=C/C=C/C=C/C=C/[C@H](O[C@@H]2O[C@H](C)[C@@H](O)[C@H](N)[C@@H]2O)C[C@@H]2O[C@](O)(C[C@@H](O)C[C@@H](O)[C@H](O)CC[C@@H](O)C[C@@H](O)CC(=O)O[C@H]1C)C[C@H](O)[C@H]2C(=O)O [AMPHOTERICIN B] | – | – | – | – | – | – | – | – | – | – | – | – | – | – | – | – | zone of inhibition at 50 µg/mL (Aspergillus niger [1]): 25 mm; zone of inhibition at 50 µg/mL (Saccharomyces cerevisiae [2]): 22 mm; zone of inhibition at 50 µg/mL (Diutina rugosa [3]): 21 mm; zone of inhibition at 50 µg/mL (Candida albicans [4]): 23.5 mm
2 | COc1cccc2c1C(=O)c1c(O)c3c(c(O)c1C2=O)C[C@@](O)(C(=O)CO)C[C@@H]3O[C@H]1C[C@H](N)[C@H](O)[C@H](C)O1 [DOXORUBICIN] | – | – | – | – | – | – | – | – | – | – | – | – | – | – | – | – | viability at 5 µM (MCF7 [19]): 43.1%; viability at 5 µM (MDA-MB-231 [20]): 22.9%
3 | O=C(N/N=C/c1ccco1)c1snnc1C(F)(F)F | 150 (≈ 517 µM) | 150 (≈ 517 µM) | 150 (≈ 517 µM) | 150 (≈ 517 µM) | 150 (≈ 517 µM) | 150 (≈ 517 µM) | 100 | 89.5 | 0 | 0 | 0 | 0 | 0 | 0 | 0 | 0 | –

The next lines start with results.

Row | MIC (Klebsiella pneumoniae) [µg/mL] | MIC (Pseudomonas aeruginosa) [µg/mL] | MIC (Staphylococcus aureus; read-out: MIC) [µg/mL] | MIC (Bacillus subtilis) [µg/mL] | MIC [18] [µg/mL] | MIC (Escherichia coli; read-out: MIC) [µg/mL] | Structure (SMILES) | viability at 10 µM (MCF7 [6]) [%] | viability at 10 µM (MDA-MB-231 [7]) [%] | zone of inhibition at 150 µg/mL (Aspergillus niger [8]) [mm] | zone of inhibition at 100 µg/mL (Aspergillus niger [9]) [mm] | zone of inhibition at 150 µg/mL (Saccharomyces cerevisiae [10]) [mm] | zone of inhibition at 100 µg/mL (Saccharomyces cerevisiae [11]) [mm] | zone of inhibition at 150 µg/mL (Diutina rugosa [12]) [mm] | zone of inhibition at 100 µg/mL (Diutina rugosa [13]) [mm] | zone of inhibition at 150 µg/mL (Candida albicans [14]) [mm] | zone of inhibition at 100 µg/mL (Candida albicans [15]) [mm] | also measured
4 | 150 (≈ 476 µM) | 150 (≈ 476 µM) | 150 (≈ 476 µM) | 150 (≈ 476 µM) | 150 (≈ 476 µM) | 150 (≈ 476 µM) | C/C(=N\NC(=O)c1snnc1C(F)(F)F)c1ccccn1 | 63.6 | 25.4 | 0 | 0 | 0 | 0 | 0 | 0 | 0 | 0 | viability at 1 µM (MDA-MB-231 [5]): 41.7%; IC50 (MCF7 [16]): 6.01 µg/mL (≈ 19.1 µM); IC50 (MDA-MB-231 [17]): 2.74 µg/mL (≈ 8.69 µM)
5 | 150 (≈ 477 µM) | 150 (≈ 477 µM) | – | 150 (≈ 477 µM) | 150 (≈ 477 µM) | – | C/C(=N\NC(=O)c1snnc1C(F)(F)F)c1ccccc1 | 115 | 94.5 | 0 | 0 | 0 | 0 | 0 | 0 | 0 | 0 | MIC (Staphylococcus aureus): > 150 µg/mL; MIC (Escherichia coli): > 150 µg/mL
